According to ChEMBL document CHEMBL1155105, “Synthesis of N-alkyl glycine amides as potent inhibitors of leukotriene A4 hydrolase” (Bioorg Med Chem Lett, 2008):

What was measured:
[1] = biological target: T1, Leukotriene A-4 hydrolase (Homo sapiens, UniProt P09960)
T1 sequence (P09960 whole entry): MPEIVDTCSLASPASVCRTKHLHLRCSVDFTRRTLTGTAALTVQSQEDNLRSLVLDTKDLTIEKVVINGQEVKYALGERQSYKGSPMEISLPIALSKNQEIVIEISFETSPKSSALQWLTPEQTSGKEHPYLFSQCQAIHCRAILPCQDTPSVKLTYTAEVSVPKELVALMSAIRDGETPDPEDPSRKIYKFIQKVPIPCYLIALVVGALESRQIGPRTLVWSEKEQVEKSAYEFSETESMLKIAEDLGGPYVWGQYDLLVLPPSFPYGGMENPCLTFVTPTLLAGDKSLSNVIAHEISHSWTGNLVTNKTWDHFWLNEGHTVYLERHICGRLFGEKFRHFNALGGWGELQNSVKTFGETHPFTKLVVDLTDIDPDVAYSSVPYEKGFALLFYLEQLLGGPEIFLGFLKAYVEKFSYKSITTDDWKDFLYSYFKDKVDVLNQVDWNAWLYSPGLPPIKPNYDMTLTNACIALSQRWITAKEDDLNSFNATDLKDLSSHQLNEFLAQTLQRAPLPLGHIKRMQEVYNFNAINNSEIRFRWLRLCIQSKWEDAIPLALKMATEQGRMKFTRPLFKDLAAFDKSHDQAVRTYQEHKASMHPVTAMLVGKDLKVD

[2] = biological target: T1, Leukotriene A-4 hydrolase; remark: listed apart in the source
[3] = Half life in iv dosed rat; format: ADME, organism-based; details: in vivo
[4] = Metabolic stability in rat microsomes assessed as compound remaining after 1 hr; format: ADME, Microsome; details: read-out: Stability
[5] = Oral bioavailability in rat; format: ADME, organism-based; details: in vivo
[6] = Clearance in iv dosed rat; format: ADME, organism-based; details: in vivo
[7] = biological target: T1, Leukotriene A-4 hydrolase; remark: listed apart in the source

Row | SMILES | IC50 [1] [nM] | IC50 [2] [nM] | further results
1 | O=C(CNCCCNCc1ccc(C(=O)O)cc1)Nc1ccc(Oc2ccccc2)cc1 | 370 | > 1000 | –
2 | CN(CCCN(C)Cc1ccc(C(=O)O)cc1)CC(=O)Nc1ccc(Oc2ccc(Cl)cc2)cc1 | 17 | 90 | –
3 | CN(CCCN(C)Cc1ccc(C(=O)O)cc1)CC(=O)Nc1ccc(Cc2ccccc2)cc1 | 3 | 70 | –
4 | CN(CCCNCc1ccc(C(=O)O)cc1)CC(=O)Nc1ccc(Oc2ccccc2)cc1 | 19 | 420 | –
5 | CN(CC(=O)Nc1ccc(Oc2ccccc2)cc1)C1CCN(Cc2ccc(C(=O)O)cc2)C1 (stereo in doubt; 4u) | 57 | 220 | –
6 | CN(CCCN(C)CC1CCC(C(=O)O)CC1)CC(=O)Nc1ccc(Oc2ccccc2)cc1 (stereo not given) | 25 | 430 | –
7 | CN(CCCN(C)Cc1ccc(C(=O)O)o1)CC(=O)Nc1ccc(Oc2ccccc2)cc1 | 28 | 440 | –
8 | CN(CCCCC(=O)O)CCCN(C)CC(=O)Nc1ccc(Oc2ccccc2)cc1 | 18 | 230 | –
9 | CN(CCCN(C)Cc1ccc(C(=O)O)cc1)CC(=O)Nc1ccc(Oc2ccccc2)cc1 | 6 | 120 | half-life [3]: 0.9 h; remaining at 1 h [4]: > 90%; bioavailability [5]: 45%; clearance [6]: 38 mL/min/kg
10 | CN(CCCN(C)Cc1ccc(C(=O)O)cc1)CC(=O)Nc1ccc(Oc2ccc(F)cc2)cc1 | 6 | 120 | –
11 | CN(CCCN(C)Cc1ccccc1)CC(=O)Nc1ccc(Oc2ccccc2)cc1 | 90 | 350 | remaining at 1 h [4]: < 33%
12 | CN(CC(=O)Nc1ccc(Oc2ccccc2)cc1)C1CCCN(Cc2ccc(C(=O)O)cc2)CC1 (stereo not given) | 160 | 380 | –
13 | O=C(CN1CCN(Cc2ccc(C(=O)O)cc2)CC1)Nc1ccc(Oc2ccccc2)cc1 | 1000 | > 1000 | –
14 | CN(CCCN(C)CC(=O)Nc1ccc(Oc2ccccc2)cc1)CCc1ccc(C(=O)O)cc1 | 3 | 80 | –
15 | CN(CC(=O)Nc1ccc(Oc2ccccc2)cc1)C[C@H]1CCCN1Cc1ccc(C(=O)O)cc1 | 7 | 30 | half-life [3]: 2.6 h; bioavailability [5]: 45%; clearance [6]: 28 mL/min/kg
16 | CN(Cc1ccc(C(=O)O)cc1)CC1CCCCN1CC(=O)Nc1ccc(Oc2ccccc2)cc1 (stereo in doubt; 4o) | 16 | 60 | –
17 | CN(CC(=O)Nc1ccc(Oc2ccccc2)cc1)C[C@@H]1CCCN1Cc1ccc(C(=O)O)cc1 | 100 | 200 | –
18 | O=C(CN1CCCN(Cc2ccc(C(=O)O)cc2)CC1)Nc1ccc(Oc2ccccc2)cc1 | 70 | 180 | –
19 | CN(CCCNCC(=O)Nc1ccc(Oc2ccccc2)cc1)Cc1ccc(C(=O)O)cc1 | 330 | > 1000 | –

Row | SMILES | IC50 [1] [nM] | IC50 [2] [nM] | further results
20 | CN(CCCN(C)Cc1ccc(C(=O)O)cc1)CC(=O)Nc1ccc(Oc2ccc(-c3ncco3)cc2)cc1 | 5 | 60 | –
21 | CN(CCCN(C)Cc1ccc(-c2nnn[nH]2)cc1)CC(=O)Nc1ccc(Oc2ccccc2)cc1 | 4 | 250 | –
22 | CN(CCN(C)Cc1ccc(C(=O)O)cc1)CC(=O)Nc1ccc(Oc2ccccc2)cc1 | 15 | 140 | –
23 | CN(CCCC(=O)O)CCCN(C)CC(=O)Nc1ccc(Oc2ccccc2)cc1 | 110 | 1500 | –
24 | CN(Cc1ccc(C(=O)O)cc1)CC1CCCN1CC(=O)Nc1ccc(Oc2ccccc2)cc1 (stereo in doubt; 4s) | 17 | 60 | –
25 | CN(CCCN(C)Cc1ccc(C(=O)O)c(F)c1)CC(=O)Nc1ccc(Oc2ccccc2)cc1 | 6 | 340 | –
26 | CN(CCCN(C)Cc1ccc(C(=O)O)cc1F)CC(=O)Nc1ccc(Oc2ccccc2)cc1 | 7 | 160 | –
27 | CN(CCCN(C)Cc1ccc(C(=O)O)cc1[N+](=O)[O-])CC(=O)Nc1ccc(Oc2ccccc2)cc1 | 15 | 290 | –
28 | CN(Cc1ccc(C(=O)O)cc1)C1CCN(CC(=O)Nc2ccc(Oc3ccccc3)cc2)CC1 | 490 | 260 | –
29 | CN(CCCN(C)Cc1ccc(S(N)(=O)=O)cc1)CC(=O)Nc1ccc(Oc2ccccc2)cc1 | 33 | > 1000 | –
30 | CN(Cc1ccc(C(=O)O)cc1)CC1CCCN1CC(=O)Nc1ccc(Oc2ccccc2)cc1 (stereo in doubt; 4r) | 26 | – | IC50 [7]: 60 nM
31 | CN(C)CCCN(C)CC(=O)Nc1ccc(Oc2ccccc2)cc1 | 160 | 135 | remaining at 1 h [4]: < 33%
32 | CN(CCCN(C)Cc1ccc(C(=O)O)cc1)CC(=O)Nc1ccc(OCC(O)c2ccccc2)cc1 (stereo not given) | 19 | 210 | –
33 | CN(Cc1ccc(C(=O)O)cc1)C1CCCN(CC(=O)Nc2ccc(Oc3ccccc3)cc2)CC1 (stereo not given) | 140 | 220 | –
34 | O=C(CN1CC2CC1CN2Cc1ccc(C(=O)O)cc1)Nc1ccc(Oc2ccccc2)cc1 (stereo not given) | 44 | 240 | –
35 | CN(Cc1ccc(C(=O)O)cc1)CC1CCCCN1CC(=O)Nc1ccc(Oc2ccccc2)cc1 (stereo in doubt; 4n) | 17 | 100 | –
36 | CN(CCCN(C)Cc1ccc(C(=O)O)c(Br)c1)CC(=O)Nc1ccc(Oc2ccccc2)cc1 | 10 | 360 | –
37 | CN(CC(=O)Nc1ccc(Oc2ccccc2)cc1)C1CCN(Cc2ccc(C(=O)O)cc2)C1 (stereo in doubt; 4t) | 120 | 180 | –
38 | CN(CCCN(C)Cc1ccc(C(=O)O)cc1)CC(=O)Nc1ccc(Oc2ccccc2F)cc1 | 16 | 230 | –
